Source: ChEMBL document CHEMBL1136145, “Antitumor activity of unsaturated fatty acid esters of 4'-demethyldeoxypodophyllotoxin” (Bioorg Med Chem Lett, 2003)
In brackets after ≈: the same amount, converted by molar mass.

Legend:
A549 = assay: Cytotoxicity in A549 (human carcinoma) cell line.; format: functional; details: read-out: ED50 (the source's name)
SK-MEL-2 = assay: Cytotoxicity in SK-MEL-2 (human melanoma) cell line.; format: functional; details: read-out: ED50 (the source's name)
CCRF S-180 = assay: Cytotoxicity in S-180 (murine sarcoma) cell was determined.; format: functional, cell-based; details: Mus musculus
[1] = Inhibition of DNA topoisomerase II in S180 (murine sarcoma) cells.; format: functional, cell-based, Mus musculus; details: ccrf s-180
Tubulin = assay: Inhibition of tubulin polymerization in S180 (murine sarcoma) cells.; format: functional, cell-based; details: ccrf s-180

Row | SMILES | EC50 (A549) | EC50 (SK-MEL-2) | IC50 (CCRF S-180) | IC50 [1] | IC50 (Tubulin)
1 | CCCC/C=C\C/C=C\C/C=C\C/C=C\CCCC(=O)Oc1c(OC)cc([C@@H]2c3cc4c(cc3C[C@H]3COC(=O)[C@@H]32)OCO4)cc1OC | 0.91 µg/mL (≈ 1.39 µM) | 0.184 µg/mL (≈ 0.28 µM) |  |  | 
2 | CCCCC/C=C\C/C=C\C/C=C\CCCCC(=O)Oc1c(OC)cc([C@@H]2c3cc4c(cc3C[C@H]3COC(=O)[C@@H]32)OCO4)cc1OC | 0.085 µg/mL (≈ 0.132 µM) | 0.041 µg/mL (≈ 0.0636 µM) |  |  | 
3 | CCCCCC/C=C/CCCCCCCCCC(=O)Oc1c(OC)cc([C@@H]2c3cc4c(cc3C[C@H]3COC(=O)[C@@H]32)OCO4)cc1OC | 1.01 µg/mL (≈ 1.56 µM) | 0.253 µg/mL (≈ 0.39 µM) |  |  | 
4 | CCCCCCCCCCCCCCCCCC(=O)Oc1c(OC)cc([C@@H]2c3cc4c(cc3C[C@H]3COC(=O)[C@@H]32)OCO4)cc1OC | 2.67 µg/mL (≈ 4.1 µM) | > 5 µg/mL |  |  | 
5 | CCCCCC/C=C\CCCCCCCCCC(=O)Oc1c(OC)cc([C@@H]2c3cc4c(cc3C[C@H]3COC(=O)[C@@H]32)OCO4)cc1OC | 0.335 µg/mL (≈ 0.516 µM) | 0.057 µg/mL (≈ 0.0878 µM) |  |  | 
6 | CCCCCCCC/C=C\CCCCCCCC(=O)Oc1c(OC)cc([C@@H]2c3cc4c(cc3C[C@H]3COC(=O)[C@@H]32)OCO4)cc1OC | 0.179 µg/mL (≈ 0.276 µM) | 0.159 µg/mL (≈ 0.245 µM) |  |  | 
7 | CCCCCCC/C=C/CCCCCCCCCC(=O)Oc1c(OC)cc([C@@H]2c3cc4c(cc3C[C@H]3COC(=O)[C@@H]32)OCO4)cc1OC | 1.66 µg/mL (≈ 2.5 µM) | 1.13 µg/mL (≈ 1.7 µM) |  |  | 
8 | CCCCCCCC/C=C/CCCCCCCC(=O)Oc1c(OC)cc([C@@H]2c3cc4c(cc3C[C@H]3COC(=O)[C@@H]32)OCO4)cc1OC | 0.367 µg/mL (≈ 0.566 µM) | 0.55 µg/mL (≈ 0.848 µM) |  |  | 
9 | COc1cc([C@@H]2c3cc4c(cc3C[C@H]3COC(=O)[C@@H]32)OCO4)cc(OC)c1OC [DESOXYPODOPHYLLOTOXIN] | 0.012 µg/mL (≈ 0.0301 µM) | 0.009 µg/mL (≈ 0.0226 µM) |  |  | 
10 | CCCC/C=C\C/C=C\CCCCCCCCCC(=O)Oc1c(OC)cc([C@@H]2c3cc4c(cc3C[C@H]3COC(=O)[C@@H]32)OCO4)cc1OC | 0.87 µg/mL (≈ 1.32 µM) | 0.347 µg/mL (≈ 0.525 µM) |  |  | 
11 | CCCCCCCC/C=C\CCCCCCCCCCCC(=O)Oc1c(OC)cc([C@@H]2c3cc4c(cc3C[C@H]3COC(=O)[C@@H]32)OCO4)cc1OC | 2.71 µg/mL (≈ 3.84 µM) | 0.561 µg/mL (≈ 0.796 µM) |  |  | 
12 | CC/C=C\C/C=C\C/C=C\CCCCCCCC(=O)Oc1c(OC)cc([C@@H]2c3cc4c(cc3C[C@H]3COC(=O)[C@@H]32)OCO4)cc1OC | 0.084 µg/mL (≈ 0.13 µM) | 0.048 µg/mL (≈ 0.0744 µM) |  |  | 
13 | CCCCC/C=C/C/C=C/CCCCCCCC(=O)Oc1c(OC)cc([C@@H]2c3cc4c(cc3C[C@H]3COC(=O)[C@@H]32)OCO4)cc1OC | 0.259 µg/mL (≈ 0.4 µM) | 0.11 µg/mL (≈ 0.17 µM) |  |  | 
14 | CCCCC/C=C\C/C=C\CCCCCCCC(=O)Oc1c(OC)cc([C@@H]2c3cc4c(cc3C[C@H]3COC(=O)[C@@H]32)OCO4)cc1OC | 0.09 µg/mL (≈ 0.139 µM) | 0.03 µg/mL (≈ 0.0464 µM) |  |  | 
15 | CCCCCCCCCCCCCCCCCCCC(=O)Oc1c(OC)cc([C@@H]2c3cc4c(cc3C[C@H]3COC(=O)[C@@H]32)OCO4)cc1OC | > 5 µg/mL | > 5 µg/mL |  |  | 
16 | CCCCCCCCCCCCCCCC(=O)Oc1c(OC)cc([C@@H]2c3cc4c(cc3C[C@H]3COC(=O)[C@@H]32)OCO4)cc1OC | 0.268 µg/mL (≈ 0.43 µM) | 0.29 µg/mL (≈ 0.466 µM) |  |  | 
17 | CCCCCC/C=C\CCCCCCCC(=O)Oc1c(OC)cc([C@@H]2c3cc4c(cc3C[C@H]3COC(=O)[C@@H]32)OCO4)cc1OC | 0.733 µg/mL (≈ 1.18 µM) | 0.065 µg/mL (≈ 0.105 µM) |  |  | 
18 | COc1cc([C@@H]2c3cc4c(cc3C[C@H]3COC(=O)[C@@H]32)OCO4)cc(OC)c1O [4'-DEMETHYLDEOXYPODOPHYLLOTOXIN] | 0.023 µg/mL (≈ 0.0598 µM) | 0.015 µg/mL (≈ 0.039 µM) | 30 nM | 24500 nM | 2000 nM
19 | CC/C=C\C/C=C\C/C=C\C/C=C\C/C=C\C/C=C\CCC(=O)Oc1c(OC)cc([C@@H]2c3cc4c(cc3C[C@H]3COC(=O)[C@@H]32)OCO4)cc1OC | 0.119 µg/mL (≈ 0.171 µM) | 0.035 µg/mL (≈ 0.0504 µM) |  |  | 
20 | CCCCCCCC/C=C\CCCCCCCCCC(=O)Oc1c(OC)cc([C@@H]2c3cc4c(cc3C[C@H]3COC(=O)[C@@H]32)OCO4)cc1OC | > 5 µg/mL | > 5 µg/mL |  |  | 
21 | CCCCCCCCCCCCCCCCCCCCCC(=O)Oc1c(OC)cc([C@@H]2c3cc4c(cc3C[C@H]3COC(=O)[C@@H]32)OCO4)cc1OC | > 5 µg/mL | > 5 µg/mL |  |  | 
